# Results from patent EP0052437A1, “Antibacterial compounds, processes for their preparation and compositions containing them” (BEECHAM GROUP PLC, priority 1980, dated 1982).
# Legend:
# Format in all cases: cell-based
# [1] = test system: M. hyosynoviae ATCC 25591; assay: Anti-mycoplasmal in vitro MIC; conditions: 144 h, Friis broth solidified with 0.9% agarose, 6 days incubation at 37°C
# [2] = test system: M. suipneumoniae PW/C/210; assay: Anti-mycoplasmal in vitro MIC; conditions: Mesomycoplasma hyopneumoniae, 144 h, Friis broth solidified with 0.9% agarose, 6 days incubation at 37°C
# M. suipneumoniae MS 16 = assay: Anti-mycoplasmal in vitro MIC; conditions: Mesomycoplasma hyopneumoniae, MS16, 144 h, Friis broth solidified with 0.9% agarose, 6 days incubation at 37°C
# [3] = test system: M. suipneumoniae ATCC 25095; assay: Anti-mycoplasmal in vitro MIC; conditions: Mesomycoplasma hyopneumoniae, ATCC25095, 144 h, Friis broth solidified with 0.9% agarose, 6 days incubation at 37°C
# M. suipneumoniae TAM 6N = assay: Anti-mycoplasmal in vitro MIC; conditions: Mesomycoplasma hyopneumoniae, TAM6N, 144 h, Friis broth solidified with 0.9% agarose, 6 days incubation at 37°C
# [4] = test system: M. suipneumoniae NCTC 10110; assay: Anti-mycoplasmal in vitro MIC; conditions: Mesomycoplasma hyopneumoniae, NCTC10110, 144 h, Friis broth solidified with 0.9% agarose, 6 days incubation at 37°C
# M. suipneumoniae NB12 = assay: Anti-mycoplasmal in vitro MIC; conditions: Mesomycoplasma hyopneumoniae, 144 h, Friis broth solidified with 0.9% agarose, 6 days incubation at 37°C
# M. suipneumoniae JF 435 = assay: Anti-mycoplasmal in vitro MIC; conditions: Mesomycoplasma hyopneumoniae, JF435, 144 h, Friis broth solidified with 0.9% agarose, 6 days incubation at 37°C
# M. hyorhinis ATCC 25021 = assay: Anti-mycoplasmal in vitro MIC; conditions: Mesomycoplasma hyorhinis, ATCC25021, 144 h, Friis broth solidified with 0.9% agarose, 6 days incubation at 37°C
# E. coli ESS = assay: Human bacteria MIC; conditions: Escherichia coli, nutrient agar with 5% chocolated horse blood, 18 hours at 37°C
# Method: (§1) The values were determined by serial dilutions in nutrient agar with 5% chocolated horse blood after incubations for 18 hours at 37 °C.
# K. aerogenes A = assay: Human bacteria MIC; conditions: Klebsiella aerogenes, nutrient agar with 5% chocolated horse blood, 18 hours at 37°C
# Method: as §1
# P. mirabilis 889 = assay: Human bacteria MIC; conditions: Proteus mirabilis, nutrient agar with 5% chocolated horse blood, 18 hours at 37°C
# Method: as §1
# [5] = test system: Ps. aeruginosa NCTC 10662; assay: Human bacteria MIC; conditions: Pseudomonas aeruginosa, NCTC10662, nutrient agar with 5% chocolated horse blood, 18 hours at 37°C
# Method: as §1
# [6] = test system: Pasteurella multocida 1633; assay: Human bacteria MIC; conditions: nutrient agar with 5% chocolated horse blood, 18 hours at 37°C
# Method: as §1
# Sarcina lutea 8340 = assay: Human bacteria MIC; conditions: Micrococcus luteus, nutrient agar with 5% chocolated horse blood, 18 hours at 37°C
# Method: as §1
# [7] = test system: Corynebacterium xerosis 9755; assay: Human bacteria MIC; conditions: nutrient agar with 5% chocolated horse blood, 18 hours at 37°C
# Method: as §1
# Strep. 641848-C = assay: Human bacteria MIC; conditions: nutrient agar with 5% chocolated horse blood, 18 hours at 37°C
# Method: as §1
# Staph. aureus W2827 = assay: Human bacteria MIC; conditions: Staphylococcus aureus, nutrient agar with 5% chocolated horse blood, 18 hours at 37°C
# Method: as §1
# Staph. aureus Russell = assay: Human bacteria MIC; conditions: Staphylococcus aureus, nutrient agar with 5% chocolated horse blood, 18 hours at 37°C
# Method: as §1
# Staph. aureus Oxford = assay: Human bacteria MIC; conditions: Staphylococcus aureus, nutrient agar with 5% chocolated horse blood, 18 hours at 37°C
# Method: as §1
# E. Coli NCTC 10418 = assay: Human bacteria MIC; conditions: Escherichia coli, NCTC10418, nutrient agar with 5% chocolated horse blood, 18 hours at 37°C
# Method: as §1
# Bacillus subtilis 6633 = assay: Human bacteria MIC; conditions: nutrient agar with 5% chocolated horse blood, 18 hours at 37°C
# Method: as §1
# [8] = test system: Neisseria catarrhalis 1502; assay: Human bacteria MIC; conditions: nutrient agar with 5% chocolated horse blood, 18 hours at 37°C
# Method: as §1
# Strep. faecalis I = assay: Human bacteria MIC; conditions: Enterococcus faecalis, nutrient agar with 5% chocolated horse blood, 18 hours at 37°C
# Method: as §1
# M. gallisepticum S6 = assay: Anti-mycoplasmal in vitro MIC; conditions: Mycoplasmoides gallisepticum, 144 h, Friis broth solidified with 0.9% agarose, 6 days incubation at 37°C
# M. hyorhinis ATCC 23234 = assay: Anti-mycoplasmal in vitro MIC; conditions: Mesomycoplasma hyorhinis, ATCC23234, 144 h, Friis broth solidified with 0.9% agarose, 6 days incubation at 37°C
# M. suipneumoniae UCD 1 = assay: Anti-mycoplasmal in vitro MIC; conditions: Mesomycoplasma hyopneumoniae, UCD1, 144 h, Friis broth solidified with 0.9% agarose, 6 days incubation at 37°C
# Strep. uberis SPU1 = assay: Veterinary bacteria MIC; conditions: Streptococcus uberis, Diagnostic Sensitivity Test Agar, 18 hours at 37°C
# Method: (§2) The values were determined using a two fold serial dilutions.in Diagnostic Sensitivity Test Agar with an inoculum of 10^4 organisms and incubation for 18 hours at 37°C.
# Bord. bronchiseptica BO8 = assay: Veterinary bacteria MIC; conditions: Bordetella bronchiseptica, Diagnostic Sensitivity Test Agar, 18 hours at 37°C
# Method: as §2
# Past. multocida PA2 = assay: Veterinary bacteria MIC; conditions: Pasteurella multocida, Diagnostic Sensitivity Test Agar, 18 hours at 37°C
# Method: as §2
# Bord. bronchiseptica BO9 = assay: Veterinary bacteria MIC; conditions: Bordetella bronchiseptica, Diagnostic Sensitivity Test Agar, 18 hours at 37°C
# Method: as §2
# [9] = test system: M. suipneumoniae J2206/183b; assay: Anti-mycoplasmal in vitro MIC; conditions: Mesomycoplasma hyopneumoniae, 144 h, Friis broth solidified with 0.9% agarose, 6 days incubation at 37°C
# M. suipneumoniae LABER = assay: Anti-mycoplasmal in vitro MIC; conditions: Mesomycoplasma hyopneumoniae, 144 h, Friis broth solidified with 0.9% agarose, 6 days incubation at 37°C
# [10] = test system: M. bovigenitalium ATCC 14173; assay: Anti-mycoplasmal in vitro MIC; conditions: 144 h, Friis broth solidified with 0.9% agarose, 6 days incubation at 37°C
# M. pneumoniae ATCC 15492 = assay: Anti-mycoplasmal in vitro MIC; conditions: Mycoplasmoides pneumoniae, ATCC15492, 144 h, Friis broth solidified with 0.9% agarose, 6 days incubation at 37°C
# M. dispar NCTC 10125 = assay: Anti-mycoplasmal in vitro MIC; conditions: 144 h, Friis broth solidified with 0.9% agarose, 6 days incubation at 37°C
Structure (SMILES),MIC [1] [µg/mL],MIC [2] [µg/mL],MIC (M. suipneumoniae MS 16) [µg/mL],MIC [3] [µg/mL],MIC (M. suipneumoniae TAM 6N) [µg/mL],MIC [4] [µg/mL],MIC (M. suipneumoniae NB12) [µg/mL],MIC (M. suipneumoniae JF 435) [µg/mL],MIC (M. hyorhinis ATCC 25021) [µg/mL],MIC (E. coli ESS) [µg/mL],MIC (K. aerogenes A) [µg/mL],MIC (P. mirabilis 889) [µg/mL],MIC [5] [µg/mL],MIC [6] [µg/mL],MIC (Sarcina lutea 8340) [µg/mL],MIC [7] [µg/mL],MIC (Strep. 641848-C) [µg/mL],MIC (Staph. aureus W2827) [µg/mL],MIC (Staph. aureus Russell) [µg/mL],MIC (Staph. aureus Oxford) [µg/mL],also measured
"C/C(=C\C(=O)OCc1cc(C#N)cc(C#N)c1)CC1OCC(CC2OC2C(C)C(C)O)C(O)C1O (stereo not drawn) [Example 6, 3,5-Dicyanobenzyl monate A]",0.1,0.05,0.05,0.05,0.1,0.1,0.1,0.1,0.05,5,> 100,100,> 100,2.5,> 100,> 100,1,5,5,2.5,MIC (E. Coli NCTC 10418): > 100 µg/mL; MIC (Bacillus subtilis 6633): 2.5 µg/mL; MIC [8]: 0.5 µg/mL; MIC (Strep. faecalis I): 100 µg/mL; MIC (M. gallisepticum S6): 2.5 µg/mL; MIC (M. hyorhinis ATCC 23234): 0.05 µg/mL; MIC (M. suipneumoniae UCD 1): 0.1 µg/mL; MIC (Strep. uberis SPU1): 0.312 µg/mL; MIC (Bord. bronchiseptica BO8): 80 µg/mL; MIC (Past. multocida PA2): 0.625 µg/mL; MIC (Bord. bronchiseptica BO9): 40 µg/mL; MIC [9]: 0.1 µg/mL; MIC (M. suipneumoniae LABER): 0.05 µg/mL; MIC [10]: 0.025 µg/mL; MIC (M. pneumoniae ATCC 15492): 2.5 µg/mL; MIC (M. dispar NCTC 10125): 0.05 µg/mL
"C/C(=C\C(=O)OCc1ccccc1C#N)CC1OCC(CC2OC2C(C)C(C)O)C(O)C1O (stereo not drawn) [Example 1, o-Cyanobenzyl monate A]",≤ 0.01,0.5,0.5,0.5,2.5,1,0.5,1,0.5,1,> 100,> 100,> 100,1,> 100,> 100,1,2.5,1,1,MIC (E. Coli NCTC 10418): > 100 µg/mL; MIC (Bacillus subtilis 6633): 2.5 µg/mL; MIC [8]: 0.5 µg/mL; MIC (Strep. faecalis I): > 100 µg/mL; MIC (M. gallisepticum S6): 2.5 µg/mL; MIC (M. hyorhinis ATCC 23234): 0.5 µg/mL; MIC (M. suipneumoniae UCD 1): 1 µg/mL; MIC (Strep. uberis SPU1): 0.156 µg/mL; MIC (Bord. bronchiseptica BO8): > 80 µg/mL; MIC (Past. multocida PA2): 0.156 µg/mL; MIC (Bord. bronchiseptica BO9): 10 µg/mL; MIC [9]: 1 µg/mL; MIC (M. suipneumoniae LABER): 0.5 µg/mL; MIC [10]: ≤ 0.01 µg/mL; MIC (M. pneumoniae ATCC 15492): 2.5 µg/mL; MIC (M. dispar NCTC 10125): 0.25 µg/mL
"C/C(=C\C(=O)OC(C)c1ccc(C#N)cc1)CC1OCC(CC2OC2C(C)C(C)O)C(O)C1O (stereo not drawn) [Example 4, 1-(p-Cyanophenyl)ethyl monate A]",0.1,1,1,1,2.5,2.5,1,1,0.5,2.5,> 100,> 100,> 100,10,> 100,> 100,2.5,5,5,2.5,MIC (E. Coli NCTC 10418): > 100 µg/mL; MIC (Bacillus subtilis 6633): 1 µg/mL; MIC [8]: 0.5 µg/mL; MIC (Strep. faecalis I): > 100 µg/mL; MIC (M. gallisepticum S6): 10 µg/mL; MIC (M. hyorhinis ATCC 23234): 0.5 µg/mL; MIC (M. suipneumoniae UCD 1): 1 µg/mL; MIC (Strep. uberis SPU1): 1.25 µg/mL; MIC (Bord. bronchiseptica BO8): 80 µg/mL; MIC (Past. multocida PA2): < 0.019 µg/mL; MIC (Bord. bronchiseptica BO9): 20 µg/mL; MIC [9]: 2.5 µg/mL; MIC (M. suipneumoniae LABER): 1 µg/mL; MIC [10]: 0.025 µg/mL; MIC (M. pneumoniae ATCC 15492): 5 µg/mL; MIC (M. dispar NCTC 10125): 0.5 µg/mL
